According to patent US9732094B2, “Arylquinazolines” (Merck Patent GmbH, priority 2013, dated 2017):
Where two headings read alike, the source gives them in different places.

Assays:
DNA-PK [1] = molecular target: T1, DNA-PK (Homo sapiens (Human), UniProt P78527); test: DNA-PK assay (biochemical), flashplate 33P-ATP kinase assay
How it was run: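 Reactions ran in streptavidin-coated flashplates and were halted by 200 mM EDTA, with a further 30 min at room temperature before saline washing.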

Kv11.1 (hERG) [2] = molecular target: T2, Kv11.1 (hERG) (Homo sapiens (Human), UniProt Q12809)
T2 sequence (Q12809 whole entry): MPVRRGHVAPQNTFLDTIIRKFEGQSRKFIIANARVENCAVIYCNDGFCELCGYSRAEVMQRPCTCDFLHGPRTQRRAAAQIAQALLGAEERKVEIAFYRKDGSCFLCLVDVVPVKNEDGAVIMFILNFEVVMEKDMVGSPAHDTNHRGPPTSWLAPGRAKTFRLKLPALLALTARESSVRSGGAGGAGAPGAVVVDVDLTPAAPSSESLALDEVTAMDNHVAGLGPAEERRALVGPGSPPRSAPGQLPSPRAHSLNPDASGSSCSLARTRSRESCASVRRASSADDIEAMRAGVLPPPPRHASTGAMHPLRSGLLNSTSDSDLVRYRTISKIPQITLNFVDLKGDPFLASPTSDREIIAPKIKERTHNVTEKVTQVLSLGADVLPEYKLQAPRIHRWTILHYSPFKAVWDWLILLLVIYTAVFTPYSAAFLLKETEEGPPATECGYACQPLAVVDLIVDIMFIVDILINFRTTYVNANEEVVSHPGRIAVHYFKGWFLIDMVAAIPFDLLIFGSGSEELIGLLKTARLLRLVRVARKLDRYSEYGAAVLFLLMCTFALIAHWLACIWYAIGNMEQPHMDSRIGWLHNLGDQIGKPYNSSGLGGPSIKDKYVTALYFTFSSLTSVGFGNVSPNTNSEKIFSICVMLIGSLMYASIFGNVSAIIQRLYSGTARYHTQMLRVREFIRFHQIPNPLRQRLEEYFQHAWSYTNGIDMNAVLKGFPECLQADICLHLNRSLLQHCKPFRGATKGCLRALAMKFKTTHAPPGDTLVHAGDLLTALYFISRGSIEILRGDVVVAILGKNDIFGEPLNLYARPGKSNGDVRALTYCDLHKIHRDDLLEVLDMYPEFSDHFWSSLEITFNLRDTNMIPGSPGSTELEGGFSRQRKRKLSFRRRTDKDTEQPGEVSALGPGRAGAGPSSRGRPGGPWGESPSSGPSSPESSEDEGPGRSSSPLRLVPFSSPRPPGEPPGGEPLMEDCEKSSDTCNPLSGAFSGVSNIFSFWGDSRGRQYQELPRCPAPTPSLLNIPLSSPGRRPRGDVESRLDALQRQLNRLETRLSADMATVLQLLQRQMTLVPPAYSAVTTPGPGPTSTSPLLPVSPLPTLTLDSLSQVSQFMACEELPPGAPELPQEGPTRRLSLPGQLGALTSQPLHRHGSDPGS

[3] = molecular target: DNA-PK phosphorylation at serine 2056 (Homo sapiens (Human), UniProt P78527); test: DNA-PK phosphorylation at serine 2056 (cellular), bleomycin-treated HCT116 cells, ELISA; assay type: cell-based; conditions: cellular DNA-PK phosphorylation at serine 2056, HCT116; read-out: IC50 pDNA-PK
How it was run: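 HCT116, MEM alpha + 10% FCS, 37 °C/10% CO2, seeded o/n. Cpd + 10 μM bleomycin, 6 h. ELISA, chemiluminescence; phospho/total DNA-PKcs ratio, DMSO = blank.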

Kv11.1 (hERG) [4] = molecular target: T2, Kv11.1 (hERG); test: Kv11.1 ion channel binding assay (Predictor hERG fluorescence polarisation); conditions: cells marked *: measured using hERG binding assay instead of hERG patch clamp assay; read-out: Ki [Kv1.11 hERG]
Method: D) Kv11.1 Ion Channel Binding Assay
Kv11.1 (hERG=human ether a go-go related […]) is a cardiac K^+ channel which should if possible not interact with the test substances. This interaction is determined quantitatively with the aid of the Predictor™ hERG Fluorescence Polarizations (FP) Assays from Life Technologies. In the case of this assay principle, cardiomyocyte cell membranes having a certain proportion of Kv11.1 channels are isolated. A dye-labelled Kv11.1 binding partner gives a high fluorescence polarisation signal by interaction with the Kv11.1. In the case of displacement of the dye, a reduction in the fluorescence polarisation signal occurs.
The assay is carried out automatically as follows: 15 nl of the test substances (highest concentration: 10 mM, 10 concentrations: dilution factors 1:3.16, DMSO) are transferred into an empty microtitre plates having 384 wells by means of an acoustic pipetter. 3 μl of the isolated membranes are subsequently added. Membranes and test substances are incubated at 22° C. for 15 min (+/−5 min). In the next step, the dye-labelled binding partner is added, followed by incubation at 22° C. After incubation for two hours, the measurement of the fluorescence polarisation is carried out on an Envision multimode Reader. Measured raw data are standardised with the aid of Genedata Assay Analyzer. The 1050 and % effect values are calculated in Genedata Condoseo.

[5] = test system: kinases of the PI3K isoenzyme family; conditions: cited from earlier work
DNA-PK [6] = molecular target: T1, DNA-PK; conditions: ATP-competitive; Hardcastle et al. (2005); cited from earlier work

IC50 (DNA-PK [1]; biochemical DNA-PK assay) [nM] | IC50 [3] [µM] | Structure (SMILES) | IC50 (DNA-PK [1]; enzymatic, 5 μM ATP) [nM] | Ki (Kv11.1 (hERG) [2]) [µM] | Ki (Kv11.1 (hERG) [4]) [µM] | inhibition of kinases of the PI3K isoenzyme family [5] | IC50 (DNA-PK [6]) [nM]
 |  | O=c1ccc(C(O)c2ccc(F)c(-c3ncnc4cc(N5C6CCC5COC6)ccc34)c2)n[nH]1 (stereo not shown) [Example 75, 6-({4-Fluoro-3-[7-(3-oxa-8-aza-bicyclo-[3.2.1]oct-8-yl)-quinazolin-4-yl]phenyl}-hydroxymethyl)-2H-pyridazin-3-one] | > 30 | > 25 |  |  | 
< 3 | < 0.5 | Cc1nccnc1C(O)c1cc(-c2ncnc3cc(N4CCOCC4)sc23)c(F)cc1Cl (stereo not shown) [Example 264, [2-Chloro-4-fluoro-5-(6-morpholin-4-yl-thieno[3,2-d}-pyrimidin-4-yl)-phenyl]-(3-methyl-pyrazin-2-yl)-methanol] |  |  | > 25 |  | 
< 3 | < 0.5 | Cc1nccnc1C(O)c1ccc(F)c(-c2ncnc3cc(N4CCOCC4)sc23)c1 (stereo not shown) [Example 265, [4-Fluoro-3-(6-morpholin-4-yl-thieno[3,2-d}-pyrimidin-4-yl)-phenyl]-(3-methyl-pyrazin-2-yl)-methanol] |  |  | > 25 |  | 
< 3 | < 0.5 | COc1nccnc1C(O)c1ccc(F)c(-c2ncnc3cc(N4CCOCC4)cc(F)c23)c1 (stereo not shown) [Example 267, [4-Fluoro-3-(5-fluoro-7-morpholin-4-yl-quinazolin-4-yl)-phenyl]-(3-methoxy-pytazin-2-yl)-methanol] |  |  | > 25 |  | 
< 3 | < 0.5 | Cc1nccnc1C(O)c1ccc(F)c(-c2ncnc3cc(N4CCOCC4)cc(F)c23)c1 (stereo not shown) [Example 268, [4-Fluoro-3-(5-fluoro-7-morpholin-4-ylquinazolin-4-yl)phenyl]-(3-methylpyrazin-2-yl)methanol] |  |  | > 25 |  | 
3 to 7 | 0.5 to 5 | Cc1nccnc1C(C(N)=O)c1cc(-c2ncnc3cc(N4CCOCC4)sc23)c(F)cc1Cl (stereo not shown) [Example 269, 2-[2-Chloro-4-fluoro-5-(6-morpholin-4-yl-thieno[3,2-d}-pyrimidin-4-yl)-phenyl]-2-(3-methyl-pyrazin-2-yl)-acetamide] |  |  | > 25 |  | 
3 to 7 | 5 to 10 | Cc1nccnc1C(C(N)=O)c1ccc(F)c(-c2ncnc3cc(N4CCOCC4)sc23)c1 (stereo not shown) [Example 270, 2-[4-Fluoro-3-(6-morpholin-4-yl-thieno[3,2-d}-pyrimidin-4-yl)-phenyl]-2-(3-methyl-pyrazin-2-yl)-acetamide] |  |  | > 25 |  | 
3 to 7 | 0.5 to 5 | COc1ccc(C(C(N)=O)c2cc(-c3ncnc4cc(N5CCOCC5)sc34)c(F)cc2Cl)nn1 (stereo not shown) [Example 272, 2-[2-Chloro-4-fluoro-5-(6-morpholin-4-yl-thieno[3,2-d}-pyrimidin-4-yl)-phenyl]-2-(6-methoxy-pyridazin-3-yl)acetamide] |  |  | > 25 |  | 
< 3 | < 0.5 | COc1ccc(C(O)c2cc(-c3ncnc4cc(N5CCOCC5)cc(F)c34)c(F)cc2Cl)nn1 (stereo not shown) [Example 278, [2-chloro-4-fluoro-5-(5-fluoro-7-morpholin-4-ylquinazolin-4-yl)phenyl]-(6-methoxypyridazin-3-yl)methanol] |  |  | > 25 |  | 
3 to 7 | 5 to 10 | OC(c1ccc(F)c(-c2ncnc3cc(N4CCOCC4)ccc23)c1)c1nccn2ncnc12 (stereo not shown) [Example 279, [4-Fluoro-3-(7-morpholin-4-yl-quinazolin-4-yl)-phenyl]-[1,2,4]-triazolo[1,5-a]-pyrazin-8-ylmethanol] |  |  | > 25 |  | 
7 to 30 | 10 to 30 | NC(=O)C(c1ccc(F)c(-c2ncnc3cc(N4CCOCC4)ccc23)c1)c1nccn2ncnc12 (stereo not shown) [Example 280, 2-[4-Fluoro-3-(7-morpholin-4-yl-quinazolin-4-yl)-phenyl]-2-[1,2,4]-triazolo[1,5-a]-pyrazin-8-yl-acetamide] |  |  | > 25 |  | 
> 30 | 10 to 30 | COc1ccc(C(O)c2ccc(F)c(-c3ncnc4cc(N5CCOCC5)c(F)cc34)c2)nn1 (stereo not shown) [Example 282, [4-Fluoro-3-(6-fluoro-7-morpholin-4-yl-quinazolin-4-yl)-phenyl]-(6-methoxy-pyridazin-3-yl)-methanol] |  |  | > 25 |  | 
3 to 7 | 10 to 30 | NC(=O)C(c1ccc(F)c(-c2ncnc3cc(N4CCOCC4)ccc23)c1)c1nncc2ccsc12 (stereo not shown) [Example 284, 2-[4-Fluoro-3-(7-morpholin-4-yl-quinazolin-4-yl)-phenyl]-2-thieno-[2,3-d}pyridazin-7-yl-acetamide] |  |  | > 25 |  | 
7 to 30 | 5 to 10 | COc1nnc(Cl)cc1C(O)c1ccc(F)c(-c2ncnc3cc(N4CCOCC4)ccc23)c1 (stereo not shown) [Example 286, (6-Chloro-3-methoxy-pyridazin-4-yl)-[4-fluoro-3-(7-morpholin-4-yl-quinazolin-4-yl)-phenyl]methanol] |  |  | > 25 |  | 
7 to 30 | 5 to 10 | CN1N=C(C(O)c2cc(-c3ncnc4cc(N5CCOCC5)ccc34)c(F)cc2Cl)CCC1=O (stereo not shown) [Example 288, 6-{[2-Chloro-4-fluoro-5-(7-morpholin-4-yl-quinazolin-4-yl)-phenyl]hydroxy-methyl}-2-methyl-4,5-dihydro-2H-pyridazin-3-one] |  |  | > 25 |  | 
3 to 7 | 0.5 to 5 | OC(c1ccc(F)c(-c2ncnc3cc(N4CCOCC4)ccc23)c1)c1ncnc2ccoc12 (stereo not shown) [Example 443, [4-fluoro-3-(7-morpholin-4-yl-quinazolin-4-yl)-phenyl]furo[3,2-d}-pyrimidin-4-yl-methanol] |  |  | > 25 |  | 
3 to 7 | 0.5 to 5 | COc1ccc(C(O)c2cc(-c3ncnc4cc(N5CCOCC5)ccc34)ccc2Cl)nn1 (stereo not shown) [Example 459, [2-Chloro-5-(7-morpholin-4-yl-quinazolin-4-yl)-phenyl]-(6-methoxy-pyridazin-3-yl)-methanol] |  |  | > 25 |  | 
3 to 7 | < 0.5 | COc1ccc(C(O)c2cc(-c3ncnc4cc(N5CCOCC5)ccc34)ccc2Cl)nn1 (stereo not shown) [Example 460, [2-Chloro-5-(7-morpholin-4-yl-quinazolin-4-yl)-phenyl]-(6-methoxy-pyridazin-3-yl)-methanol] |  |  | > 25 |  | 
< 3 | < 0.5 | Cn1cnc2ccnc(C(O)c3ccc(F)c(-c4ncnc5cc(N6CCOCC6)ccc45)c3)c21 (stereo not shown) [Example 461, [4-Fluoro-3-(7-morpholin-4-yl-quinazolin-4-yl)-phenyl]-(3-methyl-3H-imidazo[4,5-c]-pyridin-4-yl)methanol] |  |  | > 25 |  | 
< 3 | < 0.5 | OC(c1ccc(F)c(-c2ncnc3cc(N4CCOCC4)ccc23)c1)c1ncnc2ccoc12 (stereo not shown) [Example 471, [4-Fluoro-3-(7-morpholin-4-yl-quinazolin-4-yl)-phenyl]furo[3,2-d}-pyrimidin-4-yl-methanol] |  |  | > 25 |  | 
 |  | CCN1CCN(CC(=O)Nc2ccc(-c3cccc4c(=O)cc(N5CCOCC5)oc34)c3sc4ccccc4c23)CC1 [KU-0060648] |  |  |  | potently inhibited | 
 |  | O=c1cc(N2CCOCC2)oc2c(-c3cccc4c3sc3ccccc34)cccc12 [NU-7441] |  |  |  |  | 20

Structure (SMILES) | IC50 (DNA-PK [1]; biochemical DNA-PK assay) [nM] | IC50 [3] [µM] | IC50 (DNA-PK [1]; enzymatic, 5 μM ATP) [nM] | Ki (Kv11.1 (hERG) [2]) [µM] | Ki (Kv11.1 (hERG) [4]) [µM] | inhibition of kinases of the PI3K isoenzyme family [5] | IC50 (DNA-PK [6]) [nM]
[2H]C1([2H])OC([2H])([2H])C([2H])([2H])N(c2ccc3c(-c4cc(C(O)c5nccnc5OC)c(Cl)cc4F)ncnc3c2)C1([2H])[2H] (stereo not shown) [Example 258, [2-Chloro-4-fluoro-5-[7-(2,2,3,3,5,5,6,6-octadeutenomorpholin-4-yl)quinazolin-4-yl]phenyl]-(3-methoxypyrazin-2-yl)methanol] | 3 to 7 | < 0.5 |  |  | > 25 |  | 
[2H]C1([2H])OC([2H])([2H])C([2H])([2H])N(c2ccc3c(-c4cc(C(O)c5nccnc5C)ccc4F)ncnc3c2)C1([2H])[2H] (stereo not shown) [Example 259, [4-Fluoro-3-[7-(2.2,3,3,5,5,6,6-octadeuteriomorpholin-4-yl)quinazolin-4-yl]phenyl]-(3-methyl-pyrazin-2-yl)-methanol] | < 3 | < 0.5 |  |  | > 25 |  | 
